Our source for the IC50 values is patent US11319324B2, “Pyrazolo-pyrrolo-pyrimidine-dione derivatives as P2X3 inhibitors” (Bayer Aktiengesellschaft, priority 2017, dated 2022).

One experiment concerns the target T1, human P2X2/3 receptors (Homo sapiens, UniProt P56373+Q9UBL9).
T1 construct: expressed in transfected cells; host or cells: human astrocytoma 1321N1 (1312N1 [sic])
T1 sequence (P56373 1-397): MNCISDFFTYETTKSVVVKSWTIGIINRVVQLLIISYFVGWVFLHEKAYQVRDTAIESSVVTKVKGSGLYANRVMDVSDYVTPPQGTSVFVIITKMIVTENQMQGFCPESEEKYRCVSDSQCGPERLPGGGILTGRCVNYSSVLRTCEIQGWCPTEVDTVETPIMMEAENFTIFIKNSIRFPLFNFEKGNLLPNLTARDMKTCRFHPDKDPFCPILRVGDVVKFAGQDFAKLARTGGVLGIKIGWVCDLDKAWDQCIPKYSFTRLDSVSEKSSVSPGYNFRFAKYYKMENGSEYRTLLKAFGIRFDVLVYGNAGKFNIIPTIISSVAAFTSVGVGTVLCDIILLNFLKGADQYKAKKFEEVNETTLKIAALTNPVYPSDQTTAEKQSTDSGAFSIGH
T1 sequence (Q9UBL9 1-471): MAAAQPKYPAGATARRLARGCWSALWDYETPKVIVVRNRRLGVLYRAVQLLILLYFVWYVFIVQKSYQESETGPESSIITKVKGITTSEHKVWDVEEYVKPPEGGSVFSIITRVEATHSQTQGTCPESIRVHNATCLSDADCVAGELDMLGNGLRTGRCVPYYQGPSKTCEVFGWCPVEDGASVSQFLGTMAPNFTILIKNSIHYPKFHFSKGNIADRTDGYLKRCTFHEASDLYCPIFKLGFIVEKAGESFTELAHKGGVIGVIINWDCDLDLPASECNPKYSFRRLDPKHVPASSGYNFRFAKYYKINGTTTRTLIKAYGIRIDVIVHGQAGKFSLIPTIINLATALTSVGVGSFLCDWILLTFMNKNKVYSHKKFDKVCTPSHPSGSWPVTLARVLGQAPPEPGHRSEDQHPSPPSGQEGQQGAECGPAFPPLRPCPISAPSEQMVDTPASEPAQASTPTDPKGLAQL
As to the kind of experiment: Intracellular calcium measurement, antagonist activity at human P2X2/3 receptors (hP2X23 1321N1), Fluo8. Type of experiment: cell-based. As to conditions: column 4); 1321N1 cells, human P2X2/3, Fluo8, agonist ATP at EC50; read-out: 4) hP2X2/3 IC50 [nM] (1321N1). The procedure:
3) And 4) Intracellular Calcium Measurement to Compare Antagonist Activity at Human P2X3 Receptors (hP2X3 1321N1) and at Human P2X2/3 Receptors (hP2X23 1321N1)
The comparison of antagonistic activity at the P2X3 versus the P2X2/3 receptor of the compounds of the invention were performed by use of recombinant cell lines. These cell lines derived originally from the human astrocytoma cell line […] (Macintyre E H, Pontén J, Vatter A E. Acta Pathol Microbiol Scand A. 1972; 80(2):267-83). The cell lines are stably transfected with the human P2X3 receptor forming homotrimeric P2X3 receptors or are co-transfected with P2X2 and P2X3 forming heterotrimeric P2X2/3 receptors. Stimulation of the receptors with the agonist ATP leads to a conformational change of the receptors and influx of extracellular calcium ions through the open ion channel. The cytoplasmatic calcium transient is detected via the calcium sensitive dye Fluo8. The strength of Fluo8 fluorescence signal corresponds to the level of receptor activation. An inhibitor would decrease the signal depending on its potency and concentration. Fluorescence was measured by use of a suitable fluorescence reader.
On the day before the assay, the cells were plated in culture medium (DMEM high glucose, 10% FCS, 1% MEM non-essential amino acids, 4 mM Glutamax) in 384-well poly-D-lysine coated microtiter plates and kept in a cell incubator (96% humidity, 5% v/v CO2, 37° C.). On the day of the assay medium was exchanged by Fluo8 containing buffer and incubated for 60 minutes. Test compounds were added at various concentrations and plates were incubated for 10 minutes. In the fluorescence reader a 3 seconds baseline measurement was performed and the agonist ATP was applied at EC50 concentration of the respective receptor during constant fluorescence measurement for 120 seconds.
(A change in cytosolic calcium serves as a functional read-out for many receptors and channels.)

The target in a further experiment is T2, human P2X3 receptor (Homo sapiens, UniProt P56373).
T2 sequence (P56373 1-397): T1 sequence (P56373 1-397)
The experiment can be described thus: Intracellular calcium measurement to assess antagonist activity at human P2X3 receptors (hP2X3 CHO), photina luminescence. The experiment is classed as cell-based. The arrangement: expressed in transfected cells; host or cells: Chinese hamster ovary (CHO) cells. Particulars: column 2), CHO cells, agonist α,β-methylene-ATP at EC50. The method, then: 2) Intracellular Calcium Measurement to Assess Antagonist Activity at Human P2X3 Receptors (hP2X3 CHO)
The determination of antagonistic activity at the P2X3 receptor of the compounds of the invention was performed by use of a recombinant cell line. This cell line derives originally from the Chinese hamster ovary (CHO) cell line (Tjio J. H.; Puck T. T., 1958, J. Exp. Med. 108: 259-271). The cell line is stably transfected with the human P2X3 receptor and a calcium-sensitive photoprotein, mitochondrial photina, which, after reconstitution with the cofactor coelenterazine, emits light in dependence of calcium binding [Bovolenta S, Foti M, Lohmer S, Corazza S., J Biomol Screen. 2007 August; 12(5):694-704]. The strength of the photina luminescence signal corresponds to the level of receptor activation upon agonist binding. An inhibitor would decrease the signal depending on its potency and concentration. Bioluminescence was detected using a suitable luminometer [Milligan G, Marshall F, Rees S, Trends in Pharmacological Sciences 17,235-237 (1996)].
On the day before the assay, the cells were plated out in culture medium (DMEM/F12 (PAN, P04-41451), 10% FCS) in 384-well microtiter plates and kept in a cell incubator (96% humidity, 5% v/v CO2, […]). On the day of the assay medium was replaced by 2 mM Ca-tyrode buffer containing 5 μg/ml coelenterazine. Plates were incubated for 3 hours at 37° C. (96% humidity, 5% v/v CO2). […] The resulting light signal was measured immediately in the luminometer.

Where a name gives a salt, the structure may show the parent alone. Bounds are passed on as bounds.

As for `CCc1cc2n(CC(=O)Nc3ccc(F)cn3)c3c(c(=O)n2n1)CN(C(C)COCc1ccccc1)C3=O` (racemic) [Example 121, 2-{6-[(±)-1-(benzyloxy)propan-2-yl]-2-ethyl-5,8-dioxo-5,6,7,8-tetrahydro-4H-pyrazolo[1,5-a]pyrrolo[3,4-d]pyrimidin-4-yl}-N-(5-fluoropyridin-2-yl)acetamide], the IC50 on human P2X2/3 receptors was 1160 nM; at human P2X3 receptor, 51 nM. `CC(C)N1Cc2c(n(CC(=O)Nc3ccc(F)cn3)c3cc(C4CCC(=O)N4C)nn3c2=O)C1=O` (racemic) [Example 231, N-(5-fluoropyridin-2-yl)-2-{2-[(±)-1-methyl-5-oxopyrrolidin-2-yl]-5,8-dioxo-6-(propan-2-yl)-5,6,7,8-tetrahydro-4H-pyrazolo[1,5-a]pyrrolo[3,4-d]pyrimidin-4-yl}acetamide]: the IC50 on human P2X2/3 receptors was over 23500 nM; at human P2X3 receptor, 95 nM. Consider `CCc1cc2n(CC(=O)Nc3ccc(F)cn3)c3c(c(=O)n2n1)CN(Cc1ccc(C)nc1)C3=O` [Example 117], for which the figures for the IC50 at human P2X2/3 receptors and at human P2X3 receptor were 6150 nM and 27 nM, respectively.

In the case of `CCc1cc2n(CC(=O)Nc3ccc(F)cn3)c3c(c(=O)n2n1)CN(C(C)(C)COCc1ccccc1)C3=O` [Example 120, 2-{6-[1-(benzyloxy)-2-methylpropan-2-yl]-2-ethyl-5,8-dioxo-5,6,7,8-tetrahydro-4H-pyrazolo[1,5-a]pyrrolo[3,4-d]pyrimidin-4-yl}-N-(5-fluoropyridin-2-yl)acetamide], the IC50 is 345 nM on human P2X2/3 receptors and 5 nM on human P2X3 receptor.

Consider `Cc1ccc(-c2cc3n(CC(=O)Nc4ccc(F)cn4)c4c(c(=O)n3n2)CN([C@H]2CCOC2)C4=O)nc1` [Example 161, N-(5-fluoropyridin-2-yl)-2-{2-(5-methylpyridin-2-yl)-5,8-dioxo-6-[(3S)-oxolan-3-yl]-5,6,7,8-tetrahydro-4H-pyrazolo[1,5-a]pyrrolo[3,4-d]pyrimidin-4-yl}acetamide], for which the IC50 is 1350 nM on human P2X2/3 receptors and 24 nM on human P2X3 receptor. Consider `COC[C@H](C)N1Cc2c(n(CC(=O)Nc3ccc(F)cn3)c3cc(-c4ccc(C)cn4)nn3c2=O)C1=O` [Example 162], for which the IC50 on human P2X2/3 receptors is 1200 nM; at human P2X3 receptor, 6 nM. As to `COC[C@H](C)N1Cc2c(n(CC(=O)Nc3ccc(F)cn3)c3cc(C(=O)Nc4ccon4)nn3c2=O)C1=O` [Example 215], the IC50 on human P2X3 receptor is 63 nM. `COC[C@H](C)N1Cc2c(n(CC(=O)Nc3ccc(F)cn3)c3cc(C(=O)Nc4ncccn4)nn3c2=O)C1=O` [Example 217]: on human P2X3 receptor, the IC50 turned out to be 70 nM. Turning to `O=C(Cn1c2c(c(=O)n3nc(C(=O)Nc4ccccc4F)cc13)CN(C1CCOCC1)C2=O)Nc1ccc(F)cn1` [Example 219], at human P2X3 receptor, the IC50 was found to be 180 nM. Take `O=C(Cn1c2c(c(=O)n3nc(C(=O)Nc4ccccc4F)cc13)CN(CCN1CCOCC1)C2=O)Nc1ccc(F)cn1` [Example 220]: the IC50 at human P2X3 receptor came to 45 nM. On the same count and under the same terms, with `COC[C@H](C)N1Cc2c(n(CC(=O)Nc3ccc(F)cn3)c3cc(C(=O)Nc4ccccc4F)nn3c2=O)C1=O` [Example 221] the figure was 30 nM; with `CC(C)N1Cc2c(n(CC(=O)Nc3ccc(F)cn3)c3cc(C(=O)NCCCO)nn3c2=O)C1=O` [Example 224], 145 nM. Take `CC(C)N1Cc2c(n(CC(=O)Nc3ccc(F)cn3)c3cc(C4CN(C(=O)OC(C)(C)C)C4)nn3c2=O)C1=O` [Example 230, tert-butyl 3-[4-{2-[(5-fluoropyridin-2-yl)amino]-2-oxoethyl}-5,8-dioxo-6-(propan-2-yl)-5,6,7,8-tetrahydro-4H-pyrazolo[1,5-a]pyrrolo[3,4-d]pyrimidin-2-yl]azetidine-1-carboxylate]: the IC50 at human P2X3 receptor turned out to be 115 nM. As for `CC(C)N1Cc2c(n(CC(=O)Nc3ccc(F)cn3)c3cc(CN4CCCC4=O)nn3c2=O)C1=O` [Example 232, 2-{5,8-dioxo-2-[(2-oxopyrrolidin-1-yl)methyl]-6-(propan-2-yl)-5,6,7,8-tetrahydro-4H-pyrazolo[1,5-a]pyrrolo[3,4-d]pyrimidin-4-yl}-N-(5-fluoropyridin-2-yl)acetamide], on human P2X3 receptor, the IC50 was determined as 53 nM. For `CCc1cc2n(CC(=O)Nc3ccc(F)cn3)c3c(c(=O)n2n1)CN(C1CCNCC1)C3=O` [Example 237], the IC50 on human P2X3 receptor is 1950 nM. With `CC(C)N1Cc2c(n(CC(=O)Nc3ccc(F)cn3)c3cc(N)nn3c2=O)C1=O` [Example 241, 2-[2-amino-5,8-dioxo-6-(propan-2-yl)-5,6,7,8-tetrahydro-4H-pyrazolo[1,5-a]pyrrolo[3,4-d]pyrimidin-4-yl]-N-(5-fluoropyridin-2-yl)acetamide hydrochloride (1:1)], the IC50 at human P2X3 receptor amounted to 625 nM. Regarding `CCc1cc2n(CC(=O)Nc3ccc(F)cn3)c3c(c(=O)n2n1)CN(CC1CNC1)C3=O` [Example 242], the IC50 at human P2X3 receptor turned out to be 585 nM. For `CCc1cc2n(CC(=O)Nc3ccc(F)cn3)c3c(c(=O)n2n1)CN(C1CNC1)C3=O` [Example 243], the IC50 at human P2X3 receptor was found to be 230 nM. The same measure, in the same setting: with `CCc1cc2n(CC(=O)Nc3ccc(F)cn3)c3c(c(=O)n2n1)CN(C1CCN(C2CCC2)C1)C3=O` (centres unmarked) [Example 254] the figure was 1150 nM; with `CC(C)N1Cc2c(n(CC(=O)Nc3ccc(F)cn3)c3cc(C4CN(C)C4)nn3c2=O)C1=O` [Example 262], 127 nM. Consider `CCc1cc2n(CC(=O)Nc3ccc(F)cn3)c3c(c(=O)n2n1)CN(CC1CN(C(C)=O)C1)C3=O` [Example 268], for which the IC50 at human P2X3 receptor stood at 580 nM. The same measure, in the same setting: with `CCc1cc2n(CC(=O)Nc3ccc(F)cn3)c3c(c(=O)n2n1)CN(C1CN(C(C)=O)C1)C3=O` [Example 269] the figure was 1500 nM; with `CCc1cc2n(CC(=O)Nc3ccc(F)cn3)c3c(c(=O)n2n1)CN(C1CN(S(C)(=O)=O)C1)C3=O` [Example 273], 565 nM. Take `CCc1cc2n(CC(=O)Nc3ccc(F)cn3)c3c(c(=O)n2n1)CN(CC(=O)N1CCOCC1)C3=O` [Example 291, 2-{2-ethyl-6-[2-(morpholin-4-yl)-2-oxoethyl]-5,8-dioxo-5,6,7,8-tetrahydro-4H-pyrazolo[1,5-a]pyrrolo[3,4-d]pyrimidin-4-yl}-N-(5-fluoropyridin-2-yl)acetamide]: on human P2X3 receptor, the IC50 was 415 nM. As to `CCc1cc2n(CC(=O)Nc3ccc(F)cn3)c3c(c(=O)n2n1)CN(CC(=O)N(C)CC1CC1)C3=O` [Example 293], the IC50 on human P2X3 receptor is 240 nM. Consider `CCc1cc2n(CC(=O)Nc3ccc(F)cn3)c3c(c(=O)n2n1)CN(CC(=O)N(C)C1CC1)C3=O` [Example 294], for which the IC50 at human P2X3 receptor came to 247 nM.
